Laboratory results published in publication PMC3914206.

Tests used:
Assay type in all cases: binding
Set-up in all cases: KINOMEscan: ABL1(F317L)-phosphorylated / KINOMEscan: ABL1(H396P)-nonphosphorylated / KINOMEscan: ABL1(H396P)-phosphorylated / KINOMEscan: ABL1(M351T)-phosphorylated / KINOMEscan: ABL1(T315I)-phosphorylated / KINOMEscan: ABL1-nonphosphorylated / KINOMEscan: ABL1-phosphorylated / KINOMEscan: ACVR2A / KINOMEscan: ACVR2B / KINOMEscan: ADCK3 / KINOMEscan: ADCK4 / KINOMEscan: AKT1 / KINOMEscan: AKT3 / KINOMEscan: ALK / KINOMEscan: ARK5 / KINOMEscan: AURKA / KINOMEscan: AURKC / KINOMEscan: BIKE / KINOMEscan: BMPR1A / KINOMEscan: BMPR1B / KINOMEscan: BMX / KINOMEscan: BRK / KINOMEscan: BRSK1 / KINOMEscan: BRSK2 / KINOMEscan: CAMK1 / KINOMEscan: CAMK1D / KINOMEscan: CAMK1G / KINOMEscan: CAMK2A / KINOMEscan: CAMK2B / KINOMEscan: AAK1 / KINOMEscan: CAMK2D / KINOMEscan: CAMK2G / KINOMEscan: ABL1(F317I)-nonphosphorylated / KINOMEscan: ABL1(F317I)-phosphorylated / KINOMEscan: ABL1(F317L)-nonphosphorylated: unit: % Ctrl
Conditions in all cases: Compound Concentration 10 µM
panel of 442 kinases [1] = molecular target: T1, panel of 442 kinases (Homo sapiens, UniProt P09619)
T1 construct: purchased KINOMEscan
Source text: (§1) We assessed the selectivity of members of this scaffold using the KINOMEscan methodology across a near comprehensive panel of 442 kinases [[18,27]].

panel of 442 kinases [2] = molecular target: T2, panel of 442 kinases (Homo sapiens, UniProt Q9P289)
T2 construct: purchased KINOMEscan
Source text: as §1

panel of 442 kinases [3] = molecular target: T3, panel of 442 kinases (Homo sapiens, UniProt Q8IWQ3)
T3 construct: purchased KINOMEscan
T3 sequence (Q8IWQ3 1-736): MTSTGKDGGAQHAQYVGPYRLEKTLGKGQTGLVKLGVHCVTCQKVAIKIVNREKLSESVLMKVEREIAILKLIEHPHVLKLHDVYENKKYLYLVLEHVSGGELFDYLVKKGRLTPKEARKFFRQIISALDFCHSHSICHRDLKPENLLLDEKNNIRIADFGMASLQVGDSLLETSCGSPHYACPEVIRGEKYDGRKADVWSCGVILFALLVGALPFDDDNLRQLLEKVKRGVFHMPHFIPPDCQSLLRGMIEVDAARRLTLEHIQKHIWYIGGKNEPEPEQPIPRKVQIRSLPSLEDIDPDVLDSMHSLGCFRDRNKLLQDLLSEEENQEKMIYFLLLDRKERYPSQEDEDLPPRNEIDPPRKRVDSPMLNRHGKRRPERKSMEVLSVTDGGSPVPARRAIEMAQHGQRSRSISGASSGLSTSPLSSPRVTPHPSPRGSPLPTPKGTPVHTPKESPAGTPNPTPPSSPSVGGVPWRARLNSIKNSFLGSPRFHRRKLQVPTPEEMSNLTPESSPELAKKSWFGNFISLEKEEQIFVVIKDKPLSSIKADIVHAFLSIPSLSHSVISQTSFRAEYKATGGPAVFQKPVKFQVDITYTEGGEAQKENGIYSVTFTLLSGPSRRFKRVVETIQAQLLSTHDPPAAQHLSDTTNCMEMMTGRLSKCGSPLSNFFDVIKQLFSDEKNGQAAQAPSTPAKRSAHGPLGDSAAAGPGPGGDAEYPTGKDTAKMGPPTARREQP
Source text: as §1

T2 sequence (Q9P289 whole entry): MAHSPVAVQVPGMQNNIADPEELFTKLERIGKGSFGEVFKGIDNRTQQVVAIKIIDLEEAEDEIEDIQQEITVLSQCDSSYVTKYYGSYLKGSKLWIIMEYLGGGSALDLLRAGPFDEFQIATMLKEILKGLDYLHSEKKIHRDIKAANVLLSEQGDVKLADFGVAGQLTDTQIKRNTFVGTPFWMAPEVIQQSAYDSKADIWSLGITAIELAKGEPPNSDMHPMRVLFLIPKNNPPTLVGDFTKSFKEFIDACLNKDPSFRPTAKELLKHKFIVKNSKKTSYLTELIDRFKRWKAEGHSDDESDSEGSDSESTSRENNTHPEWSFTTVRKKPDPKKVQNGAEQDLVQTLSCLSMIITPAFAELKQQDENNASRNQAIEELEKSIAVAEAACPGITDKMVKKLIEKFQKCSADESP
T1 sequence (P09619 33-1106): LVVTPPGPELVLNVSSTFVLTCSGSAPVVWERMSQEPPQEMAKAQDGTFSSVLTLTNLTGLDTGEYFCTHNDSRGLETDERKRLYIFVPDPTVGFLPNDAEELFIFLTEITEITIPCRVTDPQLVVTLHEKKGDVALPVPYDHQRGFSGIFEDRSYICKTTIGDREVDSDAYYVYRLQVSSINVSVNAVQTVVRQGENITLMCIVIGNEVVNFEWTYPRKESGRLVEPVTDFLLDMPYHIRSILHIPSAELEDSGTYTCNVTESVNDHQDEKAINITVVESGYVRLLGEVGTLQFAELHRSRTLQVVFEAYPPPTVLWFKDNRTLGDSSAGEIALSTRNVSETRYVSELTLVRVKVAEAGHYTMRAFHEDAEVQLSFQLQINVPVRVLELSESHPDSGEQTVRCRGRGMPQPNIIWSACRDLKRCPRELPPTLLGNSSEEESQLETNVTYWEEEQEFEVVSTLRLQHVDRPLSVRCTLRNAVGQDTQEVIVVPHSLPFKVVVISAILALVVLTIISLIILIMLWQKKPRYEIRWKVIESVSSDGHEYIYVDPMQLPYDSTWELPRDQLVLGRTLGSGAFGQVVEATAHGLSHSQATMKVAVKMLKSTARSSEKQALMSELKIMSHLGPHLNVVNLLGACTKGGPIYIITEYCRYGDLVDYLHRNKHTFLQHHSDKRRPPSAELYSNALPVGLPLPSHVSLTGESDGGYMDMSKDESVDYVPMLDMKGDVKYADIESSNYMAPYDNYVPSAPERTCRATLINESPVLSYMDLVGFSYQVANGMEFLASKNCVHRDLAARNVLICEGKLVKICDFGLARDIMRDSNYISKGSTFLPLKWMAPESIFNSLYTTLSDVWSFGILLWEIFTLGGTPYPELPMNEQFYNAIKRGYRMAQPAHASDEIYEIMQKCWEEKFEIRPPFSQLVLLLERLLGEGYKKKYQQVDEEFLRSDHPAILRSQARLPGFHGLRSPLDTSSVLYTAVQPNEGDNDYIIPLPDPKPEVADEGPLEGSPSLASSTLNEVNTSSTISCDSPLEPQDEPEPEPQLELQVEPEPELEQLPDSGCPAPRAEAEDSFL

SMILES | KINOMEscan: PDGFRB (panel of 442 kinases [1]) | KINOMEscan: MST4 (panel of 442 kinases [2]) | KINOMEscan: BRSK2 (panel of 442 kinases [3])
COc1cc(C(=O)N2CCC(N3CCN(C)CC3)CC2)ccc1Nc1ncc2c(n1)N(C1CCCC1)c1ccccc1C(=O)N2C [Compound 25, 11-cyclopentyl-2-((2-methoxy-4-(4-(4-methylpiperazin-1-yl)piperidine-1-carbonyl)phenyl)amino)-5-methyl-5H-benzo[e]pyrimido[5,4-b][1,4]diazepin-6(11H)-one] | 83 | 100 | 80
CCOc1cc(C(=O)N2CCC(N3CCN(C)CC3)CC2)ccc1Nc1ncc2c(n1)N(C1CCCC1)c1ccccc1C(=O)N2C [Compound 26] | 100 | 100 | 92
COc1cc(C(=O)N2CCC(N3CCN(C)CC3)CC2)ccc1Nc1ncc2c(n1)N1CCc3cccc(c31)C(=O)N2C [Compound 24] | 67 |  | 81
COc1cc(C(=O)N2CCC(N3CCN(C)CC3)CC2)ccc1Nc1ncc2c(n1)N(C)c1ccccc1C(=O)N2C [15 (LRRK2-IN-1)] | 100 | 95 | 64
